# Laboratory results: patent publication US5420335A, “Parenteral nutrients based on watersoluble glycerol bisacetoacetates” (priority 1993, dated 1995)
# Several values for one entry are separate records, joined by “and”; a condition that tells them apart may be missing. Identical values can stand only once. Entries after “also recorded” stand apart in the source; their conditions may differ.
# How the values were obtained:
# [1] = Daily urinary nitrogen losses of intravenously infused rats; type: in vivo, rat (male Sprague-Dawley); conditions: for Urinary Nitrogen: Table 8, Example 4
# Description: (§1) Water was available ad libitum at all times.
# (§2) The vein was then ligated dorsally to the catheter. […] Body weights were measured daily.
# (§3) Infusate volume, oral food intake, body weight and urinary volume and total nitrogen were monitored daily for each rat. Infusate volume and food intake were determined by weighing the appropriate container at the start and end of each 24 hr. period. Measurements were recorded between 9 and 10 AM each day. At the end of the 7th day, rats were sacrificed, and blood and liver were harvested. Plasma was separated for measurement of free fatty acids, glucose, and ketone bodies. Liver was weighed and a sample was fixed in buffered formalin for gross histology.
# (§4) The data were analyzed for significance by the one-way analysis of variance with repeated measures and comparing the effect of dietary treatment on each day. […] The null hypothesis was concluded invalid if p≤0.05. The analysis of variance was computed on a SAS statistical package. […]
# [2] = Mortality and gross toxicity on intravenous infusion; conditions: in words; conclusion
# Description: as §1, §2
# [3] = Plasma free fatty acids, glucose and ketone bodies after 7 days of infusion; type: in vivo, rat (male Sprague-Dawley); conditions: for ACAC / BOHB / Glucose / Total FFA: Table 11, Example 4
# Description: as §3
# (§5) The data were analyzed for significance by the one-way analysis of variance with repeated measures and comparing the effect of dietary treatment on each day. […] The null hypothesis was concluded invalid if p≤0.05. The analysis of variance was computed on a SAS statistical package.
# [4] = Oral dietary nitrogen (food) intake of intravenously infused rats; type: in vivo, rat (male Sprague-Dawley); conditions: in words
# Description: as §1, §2, §3, §5
# (§6) This compound has an estimated energy density of 4.86 kcal/gram based on thermodynamic data from similar compounds.
# [5] = as above; type: in vivo, rat (male Sprague-Dawley); conditions: Table 7, Example 4, oral only
# [6] = Nitrogen balance (difference between intake and urinary output); type: in vivo, rat (male Sprague-Dawley); conditions: for Nitrogen Balance, Difference Between Intake And Output: average of 9 rats
# Description: as §1, §2, §3, §5
# FIG. 3 illustrates the difference between oral intake and urinary nitrogen output which is termed nitrogen balance. It is representative of nitrogen balance because urinary nitrogen is the major route for body loss of nitrogen.
# The experimental compound contains 8% nitrogen. With an infusion of 5.6 grams/day, infused nitrogen would provide approximately 450 mg more than that listed in the data tables. The final balance figures includes this number which is calculated based on the actual daily infusion rate for each rat.
# [7] = Liver weight after 7 days of infusion; type: in vivo, rat (male Sprague-Dawley); conditions: Table 11, Example 4; for Liver/100 GM: as percentage of body weight; for Liver Wt.: end of day 7
# Description: as §3, §4
# [8] = Daily body weight of intravenously infused rats; type: in vivo, rat (male Sprague-Dawley); conditions: for Daily Body Weight: Table 10, Example 4
# Description: as §1, §2, §3, §5, §6
# [9] = Overall evaluation as a parenteral nutrient; type: in vivo, rat (male Sprague-Dawley); conditions: in words
# Description: as §1, §2, §3, §5
smiles,measurement,setting,value
"CC(=O)CC(=O)NCC(O)CO (centres unmarked) [Compound 2, 1-acetoacetamido-2,3-propane diol]",Urinary Nitrogen,"[1]; day 1, average of 9 rats",477 mg
same,Urinary Nitrogen,"[1]; day 1, individual rat",562.1 mg and 483.2 mg and 380.8 mg and 411.4 mg and 401.7 mg and 527.6 mg and 477.8 mg and 509.6 mg and 536.4 mg
same,Urinary Nitrogen,"[1]; day 2, average of 9 rats",550 mg
same,Urinary Nitrogen,"[1]; day 2, individual rat",661.5 mg and 542.5 mg and 499.8 mg and 464 mg and 462.84 mg and 583.3 mg and 486 mg and 528 mg and 718.2 mg
same,Urinary Nitrogen,"[1]; day 3, average of 9 rats",576 mg
same,Urinary Nitrogen,"[1]; day 3, individual rat",671.9 mg and 704.1 mg and 548.1 mg and 413.8 mg and 619.3 mg and 603.8 mg and 315.2 mg and 622.2 mg and 682.4 mg
same,Urinary Nitrogen,"[1]; day 4, average of 9 rats",531 mg
same,Urinary Nitrogen,"[1]; day 4, individual rat",559.8 mg and 477.4 mg and 468.3 mg and 385 mg and 499.7 mg and 603.7 mg and 494.3 mg and 614.8 mg and 674.2 mg
same,Urinary Nitrogen,"[1]; day 5, average of 9 rats",479 mg
same,Urinary Nitrogen,"[1]; day 5, individual rat",599 mg and 456 mg and 434.3 mg and 300.2 mg and 365.9 mg and 503.5 mg and 525.1 mg and 552.9 mg and 572.3 mg
same,Urinary Nitrogen,"[1]; day 6, average of 9 rats",548 mg
same,Urinary Nitrogen,"[1]; day 6, individual rat",569 mg and 659.4 mg and 440.8 mg and 286.1 mg and 545.2 mg and 538.5 mg and 608.2 mg and 599 mg and 686.7 mg
same,Urinary Nitrogen,"[1]; day 7, average of 9 rats",567 mg
same,Urinary Nitrogen,"[1]; day 7, individual rat",602 mg and 613.5 mg and 519.4 mg and 81.4 mg and 588.3 mg and 633.1 mg and 678 mg and 683.9 mg and 706.8 mg
same,urinary nitrogen losses,"[1]; in words, 7 days",reflects the greater nitrogen intake by rats infused with the experimental compound
same,lethality,[2],not acutely nor chronically lethal
same,ACAC,"[3]; plasma, average",0.195 mmol/L
same,BOHB,"[3]; plasma, average",0.897 mmol/L
same,Glucose,"[3]; plasma, average",108.589 mg/dL
same,Total FFA,"[3]; plasma, average",0.580 mmol/L
same,ACAC,"[3]; plasma, individual rat",0.0958 mmol/L and 0.1231 mmol/L and 0.1385 mmol/L and 0.1032 mmol/L and 0.3378 mmol/L and 0.0999 mmol/L and 0.3415 mmol/L and 0.3225 mmol/L
same,BOHB,"[3]; plasma, individual rat",0.8481 mmol/L and 0.9004 mmol/L and 0.2501 mmol/L and 1.13 mmol/L and 0.8685 mmol/L and 1.3611 mmol/L and 0.5709 mmol/L and 1.163 mmol/L and 0.9826 mmol/L
same,Glucose,"[3]; plasma, individual rat",109.8 mg/dL and 105.2 mg/dL and 112.1 mg/dL and 111.4 mg/dL and 121 mg/dL and 91.1 mg/dL and 132.1 mg/dL and 114.6 mg/dL and 80 mg/dL
same,Total FFA,"[3]; plasma, individual rat",0.306 mmol/L and 0.472 mmol/L and 0.376 mmol/L and 1.408 mmol/L and 0.546 mmol/L and 0.651 mmol/L and 0.286 mmol/L and 0.676 mmol/L and 0.498 mmol/L
same,blood / plasma glucose,"[3]; in words, end of day 7",low blood glucose
same,ketone bodies,"[3]; in words, plasma, end of day 7",absence of elevated plasma acetoacetate; also recorded: neither of the ketone bodies were elevated when compared to the saline infused rats
same,appetite depression,[4]; Example 4,did not depress the rats appetite
same,differences in dietary nitrogen intake among the three groups,"[4]; vs saline and other groups, 7 days",no differences in dietary nitrogen intake among the three groups
same,Dietary Nitrogen Intake,"[5]; day 1, average of 9 rats",279 MG N
same,Dietary Nitrogen Intake,"[5]; day 1, individual rat",513.24 MG N and 92.12 MG N and 164.5 MG N and 138.18 MG N and 171.08 MG N and 493.5 MG N and 440.86 MG N and 355.32 MG N
same,Dietary Nitrogen Intake,"[5]; day 2, average of 9 rats",376 MG N
same,Dietary Nitrogen Intake,"[5]; day 2, individual rat",532.98 MG N and 256.62 MG N and 526.4 MG N and 59.22 MG N and 282.94 MG N and 506.66 MG N and 263.2 MG N and 447.44 MG N
same,Dietary Nitrogen Intake,"[5]; day 3, average of 9 rats",429 MG N
same,Dietary Nitrogen Intake,"[5]; day 3, individual rat",532.98 MG N and 407.96 MG N and 546.14 MG N and 118.44 MG N and 506.66 MG N and 500.08 MG N and 210.56 MG N and 513.24 MG N and 526.4 MG N
same,Dietary Nitrogen Intake,"[5]; day 4, average of 9 rats",388 MG N
same,Dietary Nitrogen Intake,"[5]; day 4, individual rat",480.34 MG N and 263.2 MG N and 473.76 MG N and 65.8 MG N and 296.1 MG N and 519.82 MG N and 355.32 MG N
same,Dietary Nitrogen Intake,"[5]; day 5, average of 9 rats",369 MG N
same,Dietary Nitrogen Intake,"[5]; day 5, individual rat",480.34 MG N and 427.7 MG N and 355.32 MG N and 0 MG N and 52.64 MG N and 500.08 MG N and 519.82 MG N and 506.66 MG N
same,Dietary Nitrogen Intake,"[5]; day 6, average of 9 rats",434 MG N
same,Dietary Nitrogen Intake,"[5]; day 6, individual rat",526.4 MG N and 421.12 MG N and 388.22 MG N and 0 MG N and 519.82 MG N and 500.08 MG N and 513.24 MG N and 506.66 MG N
same,Dietary Nitrogen Intake,"[5]; day 7, average of 9 rats",466 MG N
same,Dietary Nitrogen Intake,"[5]; day 7, individual rat",526.4 MG N and 546.14 MG N and 506.66 MG N and 0 MG N and 532.98 MG N and 519.82 MG N
same,"Nitrogen Balance, Difference Between Intake And Output","[6]; Table 9, Example 4, infused nitrogen not considered, day 1",-198 mg N
same,"Nitrogen Balance, Difference Between Intake And Output","[6]; Table 9, Example 4, infused nitrogen not considered, day 2",-173 mg N
same,"Nitrogen Balance, Difference Between Intake And Output","[6]; Table 9, Example 4, infused nitrogen not considered, day 3",-146 mg N
same,"Nitrogen Balance, Difference Between Intake And Output","[6]; Table 9, Example 4, infused nitrogen not considered, day 4",-142 mg N
same,"Nitrogen Balance, Difference Between Intake And Output","[6]; Table 9, Example 4, infused nitrogen not considered, day 5",-109 mg N
same,"Nitrogen Balance, Difference Between Intake And Output","[6]; Table 9, Example 4, infused nitrogen not considered, day 6",-114 mg N
same,"Nitrogen Balance, Difference Between Intake And Output","[6]; Table 9, Example 4, infused nitrogen not considered, day 7",-101 mg N
same,"Nitrogen Balance, Difference Between Intake And Output","[6]; Table 9A, Example 4, infused nitrogen included, day 1",256 mg N
same,"Nitrogen Balance, Difference Between Intake And Output","[6]; Table 9A, Example 4, infused nitrogen included, day 2",258 mg N
same,"Nitrogen Balance, Difference Between Intake And Output","[6]; Table 9A, Example 4, infused nitrogen included, day 3",361 mg N
same,"Nitrogen Balance, Difference Between Intake And Output","[6]; Table 9A, Example 4, infused nitrogen included, day 4",302 mg N
same,"Nitrogen Balance, Difference Between Intake And Output","[6]; Table 9A, Example 4, infused nitrogen included, day 5",317 mg N
same,"Nitrogen Balance, Difference Between Intake And Output","[6]; Table 9A, Example 4, infused nitrogen included, day 6",299 mg N
same,"Nitrogen Balance, Difference Between Intake And Output","[6]; Table 9A, Example 4, infused nitrogen included, day 7",336 mg N
same,nitrogen balance,"[6]; in words, 7 days",negative nitrogen balance if nitrogen content of the compound is not considered
same,Liver/100 GM,[7]; average,3.891
same,Liver/100 GM,[7]; individual rat,3.621 and 5.165 and 3.928 and 3.739 and 4.018 and 3.066 and 4.304 and 3.228 and 3.95
same,Liver Wt.,[7]; average,8.842
same,Liver Wt.,[7]; individual rat,9.0537 and 11.2604 and 9.1128 and 7.3291 and 9.3228 and 7.2672 and 9.4265 and 7.4879 and 9.3213
same,Daily Body Weight,"[8]; day 0, average of 9 rats",244 Grams
same,Daily Body Weight,"[8]; day 0, individual rat",247 Grams and 223 Grams and 252 Grams and 251 Grams and 259 Grams and 236 Grams and 243 Grams and 237 Grams
same,Daily Body Weight,"[8]; day 1, average of 9 rats",234 Grams
same,Daily Body Weight,"[8]; day 1, individual rat",243 Grams and 207 Grams and 240 Grams and 230 Grams and 244 Grams and 242 Grams and 227 Grams and 239 Grams and 237 Grams
same,Daily Body Weight,"[8]; day 2, average of 9 rats",234 Grams
same,Daily Body Weight,"[8]; day 2, individual rat",247 Grams and 205 Grams and 239 Grams and 227 Grams and 243 Grams and 230 Grams and 235 Grams and 237 Grams
same,Daily Body Weight,"[8]; day 3, average of 9 rats",234 Grams
same,Daily Body Weight,"[8]; day 3, individual rat",251 Grams and 204 Grams and 238 Grams and 223 Grams and 240 Grams and 243 Grams and 235 Grams and 233 Grams
same,Daily Body Weight,"[8]; day 4, average of 9 rats",233 Grams
same,Daily Body Weight,"[8]; day 4, individual rat",255 Grams and 199 Grams and 234 Grams and 208 Grams and 235 Grams and 233 Grams and 244 Grams
same,Daily Body Weight,"[8]; day 5, average of 9 rats",236 Grams
same,Daily Body Weight,"[8]; day 5, individual rat",253 Grams and 246 Grams and 234 Grams and 212 Grams and 230 Grams and 241 Grams and 236 Grams and 237 Grams
same,Daily Body Weight,"[8]; day 6, average of 9 rats",235 Grams
same,Daily Body Weight,"[8]; day 6, individual rat",251 Grams and 242 Grams and 233 Grams and 204 Grams and 243 Grams and 248 Grams and 232 Grams and 231 Grams
same,Daily Body Weight,"[8]; day 7, average of 9 rats",228 Grams
same,Daily Body Weight,"[8]; day 7, individual rat",250 Grams and 218 Grams and 232 Grams and 196 Grams and 237 Grams and 219 Grams and 236 Grams
same,change in body weight,"[8]; in words, 7 days",held relatively constant until the final day when they lose weight; also recorded: did not lose weight nor did they gain
same,efficacy as parenteral nutrient / energy source,[9],not a good source of energy
same,efficacy as parenteral nutrient / energy source,"[9]; listed as 1-acetoacetamido-2,3-propane diol",ineffective as parenteral nutrients
